Data as given in patent US20090042726A1, “Novel Herbicides” (SYNGENTA LIMITED, priority 2005, published 2009).

Tested on: Monocotyledonous and dicotyledonous test plants
Assay: Herbicidal action, application pre-emergence (Example B1)
Type: in vivo
Parameters: key: 10=total damage to plant; 0=no damage to plant
Settings: 1000 g/ha, evaluated after 9 or 13 days; for AGSTE herbicidal action (damage score 0-10): Agrostis-tenius; for AMARE herbicidal action (damage score 0-10): Amaranthus retroflexus; for DIGSA herbicidal action (damage score 0-10): Digitaria sanguinalis; for POATR herbicidal action (damage score 0-10): Poa trivialis; for SETIT herbicidal action (damage score 0-10): Setaria italica
Experimental: Monocotyledonous and dicotyledonous test plants were sown in sterilised standard soil in seed trays each having 96 cells. After one day (pre-emergence) under controlled conditions in a climatic chamber (cultivation at 23/17° C., day/night; 13 hours light; 50-60% humidity; after application at 24/19° C., day/night), the plants were treated with an aqueous spray solution of 1000 mg/l of the active ingredient used (including 10% DMSO as solvent). The plants were grown on in the climatic chamber until the test was evaluated (10=total damage to plant, 0=no damage to plant) after 9 or 13 days.

Row | Compound | AGSTE herbicidal action (damage score 0-10) | AMARE herbicidal action (damage score 0-10) | DIGSA herbicidal action (damage score 0-10) | POATR herbicidal action (damage score 0-10) | SETIT herbicidal action (damage score 0-10)
1 | Cn1nc(C(F)(F)F)c(CS(=O)(=O)C2=NOC(C)(C)C2F)c1OCC(F)(F)F (stereo not shown) [2.11] | 10 | 10 | 9 | 10 | 4
2 | CC1(C)ON=C(S(=O)(=O)Cc2cccnc2Cl)C1F (stereo not shown) [3.06] | 10 | 8 | 0 | 10 | 
3 | CC(c1c(C(F)(F)F)nn(C)c1OC(F)F)S(=O)(=O)C1=NOC(C)(C)C1F (mixture of isomers) [Compound No. 2.27] | 10 | 10 | 10 | 10 | 10
4 | C=CCn1nc(C[S+]([O-])C2=NOC(C)(C)C2F)c(C(F)(F)F)n1 (single isomer, unassigned) [7.08] | 10 | 10 | 10 | 10 | 
5 | Cc1nn(C(C)C)nc1C[S+]([O-])C1=NOC(C)(C)C1F (mixture of isomers) [7.38] | 10 | 6 | 7 | 7 | 
6 | CCc1nn(C)nc1CSC1=NOC(C)(C)C1F (stereo not shown) [Compound No. 7.31] | 9 | 0 | 7 | 0 | 
7 | CCn1ncc(C[S+]([O-])C2=NOC(C)(C)C2F)n1 (mixture of isomers) [7.35] | 10 | 8 | 9 | 9 | 
8 | Cn1nc(C(F)(F)F)c(C[S+]([O-])C2=NOC(C)(C)C2F)c1OCC(F)(F)F (mixture of isomers) [2.08] | 10 | 10 | 10 | 10 | 10
9 | CC(Oc1c(CS(=O)(=O)C2=NOC(C)(C)C2F)c(C(F)(F)F)nn1C)C(F)(F)F (mixture of isomers) [2.37] | 10 | 8 | 9 | 10 | 9
10 | CC1(C)ON=C([S+]([O-])Cc2c(F)cccc2F)C1F (single isomer, unassigned) [1.16] | 10 | 8 | 10 | 10 | 6
11 | Cn1nc(OCC(F)(F)F)c(CS(=O)(=O)C2=NOC(C)(C)C2F)c1C(F)(F)F (stereo not shown) [2.44] | 0 | 10 | 7 | 10 | 10
12 | C=CCn1nc(C[S+]([O-])C2=NOC(C)(C)C2F)c(C(F)(F)F)n1 (single isomer, unassigned) [7.09] | 10 | 10 | 10 | 10 | 
13 | Cn1nc(OC(F)F)cc1CS(=O)(=O)C1=NOC(C)(C)C1F (stereo not shown) [6.10] | 10 | 7 | 0 | 9 | 
14 | Cn1nc(C(F)(F)F)c(C[S+]([O-])C2=NOC(C)(C)C2F)c1OCC(F)(F)F (single isomer, unassigned) [2.10] | 10 | 8 | 10 | 10 | 9
15 | Cn1nc(C(F)(F)F)c(C[S+]([O-])C2=NOC(C)(C)C2Cl)c1OCC(F)(F)F (stereo not shown) [Compound No. 2.14, 4-Chloro-5,5-dimethyl-3-[1-methyl-5-(2,2,2-trifluoro-ethoxy)-3-trifluoromethyl-1H-pyrazol-4-ylmethylsulfinyl]-4,5-dihydro-isoxazole] | 10 | 9 | 9 | 10 | 9
16 | Cn1nc(C(F)(F)F)cc1C[S+]([O-])C1=NOC(C)(C)C1F (mixture of isomers) [6.03] | 10 | 8 | 9 | 10 | 

Row | Compound | AGSTE herbicidal action (damage score 0-10) | AMARE herbicidal action (damage score 0-10) | DIGSA herbicidal action (damage score 0-10) | POATR herbicidal action (damage score 0-10) | SETIT herbicidal action (damage score 0-10)
17 | Cc1nc(C(F)(F)F)ccc1C[S+]([O-])C1=NOC(C)(C)C1F (mixture of isomers) [3.02] | 10 | 7 | 9 | 10 | 8
18 | Cn1nc(OC(F)F)c(C[S+]([O-])C2=NOC(C)(C)C2F)c1C(F)(F)F (single isomer, unassigned) [2.29] | 9 | 8 | 0 | 10 | 9
19 | Cn1nc(C[S+]([O-])C2=NOC(C)(C)C2F)c(C(F)(F)F)n1 (stereo not shown) [7.43] | 10 | 10 | 10 | 10 | 
20 | COCCn1nc(CS(=O)(=O)C2=NOC(C)(C)C2F)c(C(F)(F)F)n1 (stereo not shown) [7.20] | 10 | 10 | 10 | 10 | 
21 | Cc1nn(C)c(OCC(F)(F)F)c1CS(=O)(=O)C1=NOC(C)(C)C1F (stereo not shown) [2.63] | 10 | 10 | 8 | 10 | 
22 | Cc1nc(C[S+]([O-])C2=NOC(C)(C)C2F)n(C)n1 (single isomer, unassigned) [8.02] | 10 | 4 | 10 | 10 | 
23 | Cn1nc(C(F)(F)F)c(CSC2=NOC(C)(C)C2F)c1F (stereo not shown) [Compound No. 2.54] | 10 | 9 | 6 | 10 | 
24 | CC1(C)ON=C(S(=O)(=O)Cc2ccccc2OC(F)(F)F)C1F (stereo not shown) [1.11] | 10 | 7 | 10 | 10 | 8
25 | COCCn1nc(CSC2=NOC(C)(C)C2F)c(C(F)(F)F)n1 (stereo not shown) [Compound No. 7.18] | 7 | 8 | 8 | 0 | 
26 | Cn1nc(C(F)(F)F)c(CS(=O)(=O)C2=NOC(C)(C)C2Br)c1OC(F)F (stereo not shown) [Compound No. 2.06, 4-Bromo-3-(5-difluoromethoxy-1-methyl-3-trifluoromethyl-1H-pyrazol-4-ylmethylsulfonyl)-5,5-dimethyl-4,5-dihydro-isoxazole] | 10 | 7 | 8 | 9 | 7
27 | Cn1nc(OCC(F)(F)F)c(C[S+]([O-])C2=NOC(C)(C)C2F)c1C(F)(F)F (single isomer, unassigned) [2.43] | 0 | 8 | 9 | 10 | 8
28 | Cn1nc(OC(F)F)cc1C[S+]([O-])C1=NOC(C)(C)C1F (mixture of isomers) [6.09] | 10 | 10 | 9 | 9 | 
29 | CCc1nn(C)nc1C[S+]([O-])C1=NOC(C)(C)C1F (mixture of isomers) [7.32] | 10 | 7 | 9 | 9 | 
30 | Cc1nn(C(C)C)nc1CS(=O)(=O)C1=NOC(C)(C)C1F (stereo not shown) [7.39] | 10 | 8 | 9 | 8 | 
31 | Cn1ncc(C[S+]([O-])C2=NOC(C)(C)C2F)n1 (mixture of isomers) [7.22] | 9 | 0 | 8 | 9 | 
32 | Cn1nc(OC(F)F)c(C[S+]([O-])C2=NOC(C)(C)C2F)c1C(F)(F)F (single isomer, unassigned) [2.30] | 10 | 9 | 10 | 9 | 9
